Data taken from ChEMBL document CHEMBL1150668, “Antimicrobial resveratrol tetramers from the stem bark of Vatica oblongifoliassp. oblongifolia” (2002).
Values after ≈ are worked out from the molar mass of the structure shown.

Assays:
Staphylococcus aureus = test: Antimicrobial activity against methicillin-resistant Staphylococcus aureus by microdilution method; format: functional
[1] = tested on: Mycolicibacterium smegmatis; test: Antimicrobial activity against Mycobacterium smegmatis by microdilution method; format: functional

Row | SMILES | MIC (Staphylococcus aureus) | MIC [1]
1 | Oc1ccc([C@@H]2c3c(O)cc(O)cc3[C@@H]3c4c(cc(O)c5c4[C@@H]2[C@H](c2ccc(O)cc2)[C@H]5c2cc(O)cc4c2[C@H](c2cc(O)cc(O)c2)[C@@H](c2ccc(O)cc2)O4)O[C@H]3c2ccc(O)cc2)cc1 [VATICAPHENOL A] | 50 µg/mL (≈ 55.1 µM) | 25 µg/mL (≈ 27.6 µM)
2 | CN[C@H](CC(C)C)C(=O)N[C@H]1C(=O)N[C@@H](CC(N)=O)C(=O)N[C@H]2C(=O)N[C@H]3C(=O)N[C@H](C(=O)N[C@H](C(=O)O)c4cc(O)cc(O)c4-c4cc3ccc4O)[C@H](O)c3ccc(c(Cl)c3)Oc3cc2cc(c3O[C@@H]2O[C@H](CO)[C@@H](O)[C@H](O)[C@H]2O[C@H]2C[C@](C)(N)[C@H](O)[C@H](C)O2)Oc2ccc(cc2Cl)[C@H]1O [VANCOMYCIN] | 0.8 µg/mL (≈ 0.552 µM) | 
3 | NNC(=O)c1ccncc1 [ISONIAZID] |  | 0.8 µg/mL (≈ 5.83 µM)
4 | Oc1ccc([C@H]2c3c(O)cc(O)cc3[C@@H]3c4c(cc(O)cc4[C@H]2[C@H]2c4cc(O)cc5c4[C@@H](c4cc(O)cc(O)c4[C@@H]2c2ccc(O)cc2)[C@H](c2ccc(O)cc2)O5)O[C@H]3c2ccc(O)cc2)cc1 [ISOHOPEAPHENOL A] | > 100 µg/mL | > 100 µg/mL
5 | Oc1ccc([C@@H]2c3c(O)cc(O)cc3[C@@H]3c4c(cc(O)cc4[C@H]2[C@H]2c4cc(O)cc5c4[C@@H](c4cc(O)cc(O)c4[C@@H]2c2ccc(O)cc2)[C@H](c2ccc(O)cc2)O5)O[C@H]3c2ccc(O)cc2)cc1 [HOPEAPHENOL A] | 100 µg/mL (≈ 110 µM) | 50 µg/mL (≈ 55.1 µM)
